Laboratory results from US8575156B2, “Cyclic inhibitors of 11β-hydroxysteroid dehydrogenase 1” (Vitae Pharmaceuticals, Inc., priority 2007, dated 2013).
Read-outs that look alike come from different tables or passages of the source.

Experiments:
11β-HSD1 [1] = molecular target: T1, 11β-HSD1 (Homo sapiens, UniProt P28845); conditions: for Average % inhibition at 100 nM: 0.1 µM; for IC50: read-out: IC50 Range; for Average % inhibition at 111.1 nM: 111.1 nM compound, 0.1111 µM
11β-HSD1 [2] = molecular target: T1, 11β-HSD1; assay: biochemical; conditions: for IC50: IC50 Range; for inhibition at 0.1111 µM: read-out: Average % inhibition at 111.1 nM, Biological Test Example 1, 111.1 nM
[3] = Biological Test Example 1, microsomes from CHO cells overexpressing human 11β-HSD1
[4] = Biological Test Example 1, 100 nM compound
[5] = read-out: Average % inhibition at 100 nM, Biological Test Example 1, 100 nM

T1 sequence (P28845 whole entry): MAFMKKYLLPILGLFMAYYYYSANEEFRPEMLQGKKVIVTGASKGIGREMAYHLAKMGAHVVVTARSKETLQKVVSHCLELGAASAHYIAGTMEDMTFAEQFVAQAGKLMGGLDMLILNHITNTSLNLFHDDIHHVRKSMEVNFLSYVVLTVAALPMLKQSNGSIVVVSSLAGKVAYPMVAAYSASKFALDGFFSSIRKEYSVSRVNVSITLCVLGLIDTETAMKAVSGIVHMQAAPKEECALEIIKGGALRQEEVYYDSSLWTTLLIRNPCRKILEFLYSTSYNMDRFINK

| Compound | IC50 (11β-HSD1 [1]; [3]) | IC50 (11β-HSD1 [2]; [3]) | inhibition at 0.1 µM (11β-HSD1 [2]; [5]) | other results |
| --- | --- | --- | --- | --- |
| 3-((S)-1-(2′,4′-difluorobiphenyl-4-yl)ethyl)-6-(2-hydroxyethyl)-6-isopropyl-1,3-oxazinan-2-one [EXAMPLE 207 Isomer 1] |  |  |  | Average % inhibition at 100 nM (11β-HSD1 [1]): 89.9%; IC50 (11β-HSD1 [1]): < 100 nM |
| 3-((S)-1-(2′,4′-difluorobiphenyl-4-yl)ethyl)-6-(2-hydroxyethyl)-6-isopropyl-1,3-oxazinan-2-one [EXAMPLE 207 Isomer 2] |  |  |  | Average % inhibition at 100 nM (11β-HSD1 [1]): 89.3%; IC50 (11β-HSD1 [1]): < 100 nM |
| C[C@@H](c1ccccc1)N1CCC(C)(c2ccccc2)OC1=O (single isomer, unassigned) [EXAMPLE 82 Isomer 2] | < 100 nM |  |  | Average % inhibition at 111.1 nM (11β-HSD1 [1]; Biological Test Example 1): 89.2% |
| C[C@H](c1ccccc1)N1CCC(C)(c2ccccc2)OC1=O (single isomer, unassigned) [EXAMPLE 83 Isomer 2] | 100 to 1000 nM |  |  | Average % inhibition at 111.1 nM (11β-HSD1 [1]; Biological Test Example 1): 45.8% |
| C[C@@H](c1ccc(-c2ccc(F)cc2F)cc1)N1CCC(CCCO)(c2cccs2)OC1=O (single isomer, unassigned) [EXAMPLE 171 Isomer 2] | < 100 nM |  |  | Average % inhibition at 100 nM (11β-HSD1 [1]; [4]): 68.6% |
| CC(C)C1(CCCO)CCN([C@@H](C)c2ccc(Cl)cc2)C(=O)O1 (single isomer, unassigned) [EXAMPLE 187 Isomer 2] | < 100 nM |  |  | Average % inhibition at 100 nM (11β-HSD1 [1]): 46.4% |
| C[C@@H](C1CCCCC1)N1CC[C@](CC(O)CO)(c2ccc(F)cc2)OC1=O (single isomer, unassigned) [EXAMPLE 197 Isomer 2] | < 100 nM |  |  | Average % inhibition at 100 nM (11β-HSD1 [1]; [4]): 82.1% |
| CC(C)C1(CCCO)CCN([C@@H](C)c2ccc(Br)cc2)C(=O)O1 (single isomer, unassigned) [EXAMPLE 200 Isomer 2] | < 100 nM |  |  |  |
| CC[C@@H](c1ccc(OC(F)F)cc1)N1CC[C@](CCC(N)=O)(c2ccccc2)OC1=O [EXAMPLE 537, 3-((R)-3-((S)-1-(4-(difluoromethoxy)phenyl)propyl)-2-oxo-6-phenyl-1,3-oxazinan-6-yl)propanamide] |  | < 100 nM | 94.7% |  |
| Cc1cc(-c2ccc([C@H](C)N3CC[C@](CC(C)(C)O)(c4ccc(F)cc4)OC3=O)cc2)cc(C)[n+]1[O-] [EXAMPLE 557, 4-(4-((S)-1-((S)-6-(4-fluorophenyl)-6-(2-hydroxy-2-methylpropyl)-2-oxo-1,3-oxazinan-3-yl)ethyl)phenyl)-2,6-dimethylpyridine 1-oxide] |  |  |  | inhibition at 0.1111 µM (11β-HSD1 [2]): 89.7% |
| C[C@@H](c1ccc(-c2ccc(F)cc2)cc1)N1CC[C@](CC(C)(C)C(N)=O)(c2ccccc2)OC1=O [EXAMPLE 568, 3-((R)-3-((S)-1-(4′-fluorobiphenyl-4-yl)ethyl)-2-oxo-6-phenyl-1,3-oxazinan-6-yl)-2,2-dimethylpropanamide] |  | < 100 nM | 97.7% |  |
| NC(=O)c1ccc(N2CCC[C@H](N3CC[C@](CCCO)(c4ccc(F)cc4)OC3=O)C2)nc1 [EXAMPLE 584, 6-((S)-3-((R)-6-(4-fluorophenyl)-6-(3-hydroxypropyl)-2-oxo-1,3-oxazinan-3-yl)piperidin-1-yl)nicotinamide] |  |  |  | inhibition at 0.1111 µM (11β-HSD1 [2]): 77% |
| CC(=O)N(C)CC[C@]1(c2ccccc2)CCN([C@@H](C)c2ccc(Br)cc2)C(=O)O1 [EXAMPLE 586, N-(2-((R)-3-((S)-1-(4-bromophenyl)ethyl)-2-oxo-6-phenyl-1,3-oxazinan-6-yl)ethyl)-N-methylacetamide] |  | < 100 nM | 98% |  |
| Cc1nnc(CC[C@]2(c3ccccc3)CCN([C@@H](C)c3ccc(Br)cc3)C(=O)O2)o1 [EXAMPLE 595, (R)-3-((S)-1-(4-bromophenyl)ethyl)-6-(2-(5-methyl-1,3,4-oxadiazol-2-yl)ethyl)-6-phenyl-1,3-oxazinan-2-one] |  | < 100 nM | 90.6% |  |
| Cc1nnc(CC[C@]2(c3ccccc3)CCN([C@@H](C)c3ccc(Br)cc3)C(=O)O2)s1 [EXAMPLE 601, (R)-3-((S)-1-(4-bromophenyl)ethyl)-6-(2-(5-methyl-1,3,4-thiadiazol-2-yl)ethyl)-6-phenyl-1,3-oxazinan-2-one] |  | < 100 nM | 89.4% |  |
| C[C@@H](c1ccc(Br)cc1)N1CC[C@](CC(C)(C)NC(=O)C(C)(C)C)(c2ccccc2)OC1=O [EXAMPLE 693, N-(1-((S)-3-((S)-1-(4-bromophenyl)ethyl)-2-oxo-6-phenyl-1,3-oxazinan-6-yl)-2-methylpropan-2-yl)pivalamide] |  |  |  | IC50 (11β-HSD1 [2]; microsomes from CHO cells overexpressing human 11β-HSD1): > 100 nM; inhibition at 0.1 µM (11β-HSD1 [2]; read-out: Average % inhibition at 100 nM, 100 nM compound, microsomes from CHO cells overexpressing human 11β-HSD1): 17.6% |

More lines, main results first:

| IC50 (11β-HSD1 [1]; [3]) | IC50 (11β-HSD1 [2]; [3]) | inhibition at 0.1 µM (11β-HSD1 [2]; [5]) | Compound | other results |
| --- | --- | --- | --- | --- |
| < 100 nM |  |  | C=CC1(c2ccc(F)cc2)CCN([C@@H](C)c2ccccc2)C(=O)O1 (single isomer, unassigned) [EXAMPLE 113 Isomer 2] | Average % inhibition at 111.1 nM (11β-HSD1 [1]; Biological Test Example 1): 82.6% |
| < 100 nM |  |  | CC(O)C[C@]1(c2ccc(F)cc2)CCN([C@@H](C)c2ccc(-c3ccc(F)cc3F)cc2)C(=O)O1 (single isomer, unassigned) [EXAMPLE 137 Isomer 2] |  |
| < 100 nM |  |  | CC(O)C[C@@]1(c2cccs2)CCN([C@@H](C)c2ccc(-c3ccc(F)cc3)cc2)C(=O)O1 (single isomer, unassigned) [EXAMPLE 167 Isomer 2] | Average % inhibition at 111.1 nM (11β-HSD1 [1]; Biological Test Example 1): 77.2% |
| < 100 nM |  |  | C[C@@H](c1ccc(-c2ccc(F)cc2)cc1)N1CC[C@](CC(O)CO)(c2ccccc2)OC1=O (single isomer, unassigned) [EXAMPLE 168 Isomer 2] | Average % inhibition at 100 nM (11β-HSD1 [1]; [4]): 95.6% |
| < 100 nM |  |  | C[C@@H](c1ccc(-c2ccc(F)cc2F)cc1)N1CC[C@](CC(O)CO)(c2ccccc2)OC1=O (single isomer, unassigned) [EXAMPLE 173 Isomer 2] | Average % inhibition at 100 nM (11β-HSD1 [1]; [4]): 94.5% |
| < 100 nM |  |  | C=CCC1(c2ccc(F)cc2)CCN([C@@H](C)c2ccc(C)cc2)C(=O)O1 (single isomer, unassigned) [EXAMPLE 189 Isomer 2] | Average % inhibition at 100 nM (11β-HSD1 [1]; [4]): 90.1% |
| < 100 nM |  |  | C=CCC1(c2ccc(F)cc2)CCN([C@@H](C)c2ccc(OC)cc2)C(=O)O1 (single isomer, unassigned) [EXAMPLE 193 Isomer 2] |  |
| < 100 nM |  |  | C=CCC1(c2ccc(F)cc2)CCN([C@@H](C)c2ccc(Cl)cc2)C(=O)O1 (single isomer, unassigned) [EXAMPLE 196 Isomer 2] | Average % inhibition at 100 nM (11β-HSD1 [1]; [4]): 98.9% |
| < 100 nM |  |  | CC(O)C[C@]1(c2ccc(F)cc2)CCN([C@@H](C)c2ccc(Cl)cc2)C(=O)O1 (single isomer, unassigned) [EXAMPLE 203 Isomer 2] | Average % inhibition at 100 nM (11β-HSD1 [1]; [4]): 93.8% |
| < 100 nM |  |  | COc1ccc([C@H](C)N2CC[C@](CC(O)CO)(c3ccc(F)cc3)OC2=O)cc1 (single isomer, unassigned) [EXAMPLE 206 Isomer 2] | Average % inhibition at 100 nM (11β-HSD1 [1]; [4]): 85.9% |
|  | < 100 nM | 97.7% | C[C@@H](c1ccc(Cl)cc1F)N1CC[C@](CC(C)(C)C(N)=O)(c2ccc(F)cc2)OC1=O [EXAMPLE 578, 3-((R)-3-((S)-1-(4-chloro-2-fluorophenyl)ethyl)-6-(4-fluorophenyl)-2-oxo-1,3-oxazinan-6-yl)-2,2-dimethylpropanamide] |  |
|  | < 100 nM | 96.4% | C[C@@H](c1ccc(Br)cc1F)N1CC[C@](CCCO)(c2ccc(F)cc2)OC1=O [EXAMPLE 581, (R)-3-((S)-1-(4-bromo-2-fluorophenyl)ethyl)-6-(4-fluorophenyl)-6-(3-hydroxypropyl)-1,3-oxazinan-2-one] |  |
|  | < 100 nM | 98.6% | C[C@@H](c1ccc(Cl)cc1F)N1CC[C@](CCCNS(C)(=O)=O)(c2ccc(F)cc2)OC1=O [EXAMPLE 602, N-(3-((R)-3-((S)-1-(4-chloro-2-fluorophenyl)ethyl)-6-(4-fluorophenyl)-2-oxo-1,3-oxazinan-6-yl)propyl)methanesulfonamide] |  |
|  | < 100 nM | 85.8% | CC(=O)NCC(C)(C)C[C@]1(c2ccc(F)cc2)CCN([C@@H](C)c2ccc(Br)cc2)C(=O)O1 [EXAMPLE 605, N-(3-((R)-3-((S)-1-(4-bromophenyl)ethyl)-6-(4-fluorophenyl)-2-oxo-1,3-oxazinan-6-yl)-2,2-dimethylpropyl)acetamide] |  |
|  | < 100 nM | 96.2% | COC(=O)NC(C)(C)C[C@]1(c2ccc(F)cc2)CCN([C@@H](C)c2ccc(Br)cc2)C(=O)O1 [EXAMPLE 606, methyl 1-((S)-3-((S)-1-(4-bromophenyl)ethyl)-6-(4-fluorophenyl)-2-oxo-1,3-oxazinan-6-yl)-2-methylpropan-2-ylcarbamate] |  |
|  | < 100 nM | 84.7% | C[C@@H](c1ccc(Br)cc1)N1CC[C@](CC(C)(C)CNS(C)(=O)=O)(c2ccc(F)cc2)OC1=O [EXAMPLE 608, N-(3-((R)-3-((S)-1-(4-bromophenyl)ethyl)-6-(4-fluorophenyl)-2-oxo-1,3-oxazinan-6-yl)-2,2-dimethylpropyl)methanesulfonamide] |  |
|  | < 100 nM | 68.7% | CCOC(=O)NCC[C@]1(c2ccc(F)cc2)CCN([C@@H](C)c2ccc(Br)cc2)C(=O)O1 [EXAMPLE 620, ethyl 2-((R)-3-((S)-1-(4-bromophenyl)ethyl)-6-(4-fluorophenyl)-2-oxo-1,3-oxazinan-6-yl)ethylcarbamate] |  |
|  | < 100 nM | 78.3% | C[C@@H](c1ccc(Br)cc1)N1CC[C@](CC(C)(C)N)(c2ccc(F)cc2)OC1=O [EXAMPLE 621, (S)-6-(2-amino-2-methylpropyl)-3-((S)-1-(4-bromophenyl)ethyl)-6-(4-fluorophenyl)-1,3-oxazinan-2-one] |  |
|  | < 100 nM | 94.8% | CC(=O)NC(C)(C)C[C@]1(c2ccc(F)cc2)CCN([C@@H](C)c2ccc(Br)cc2)C(=O)O1 [EXAMPLE 626, N-(1-((S)-3-((S)-1-(4-bromophenyl)ethyl)-6-(4-fluorophenyl)-2-oxo-1,3-oxazinan-6-yl)-2-methylpropan-2-yl)acetamide] |  |
